{"source": "patent EP4729530A1", "about": "“NOVEL PEPTIDE AND USE THEREOF” (Gemvax & Kael Co., Ltd., priority 2023, dated 2024)", "key": {"4R Tau^P301L-BiFC mouse [1]": {"system": "4R Tau^P301L-BiFC mouse", "test": "Novel object recognition experiment in 4R tauopathy mouse model", "assay_type": "in vivo", "settings": "GV2002 2 mg/kg subcutaneous, 3 times/week, 21 weeks", "description": "(§1) In vivo experiments were performed on the 4R tauopathy mouse groups shown in FIG. 4 according to the schedule shown in FIG. 5 and the outline in Table 3 below.\nNovel object recognition experiments were conducted on a 4R tauopathy mouse model administered GV2002 for five months, from 7.5 to 12.5 months of age, to evaluate the efficacy of GV2002 in alleviating impairment in cognitive ability.\nMice that underwent the experiment from days 1 to 6 according to the experimental method in Example 4-2 were subjected to a novel object recognition experiment on days 7 and 8. […] On day 8, one of the two objects was replaced with a novel object, and mice were placed in the enclosure and observed for 10 minutes, during which the time spent exploring the novel object was measured. Prior to the experiments on days 7 and 8, mice were allowed one hour to acclimate to the testing environment. The illumination level was maintained at a constant level throughout the experiment. The recorded data were analyzed using two-way ANOVA with Sidak's multiple comparisons test."}, "[2]": {"system": "total tau (Tau5) and phosphorylated tau (pS199, pS396)", "test": "Brain lysate analysis by tau immunoblot (soluble and insoluble fractions)", "assay_type": "in vivo, mouse", "settings": "GV2002 2 mg/kg subcutaneous, 3 times/week, 21 weeks", "description": "as §1\nBrain lysates from a 4R tauopathy mouse model administered GV2002 for five months, from 7.5 to 12.5 months of age, were obtained. Soluble and insoluble fraction samples were subjected to immunoblotting using antibodies against total tau (Tau5) and phosphorylated tau (pS199, pS396), and the levels of total and phosphorylated tau were quantitatively analyzed.\nMouse models were anesthetized, saline was intracardially perfused, and blood was removed using a perfusion pump device. The brain was then removed and weighed. 1 mL of RIPA buffer (containing protease and phosphatase inhibitor cocktails) was added to the extracted brain and homogenized.\nThe homogenized brain lysates were transferred to EP tubes and incubated on an orbital shaker at 4°C for 2 hours. After centrifugation at 13,000 rpm for 20 minutes at 4°C, the supernatant (soluble fraction) was collected in a new EP tube and stored at -80°C.\nTo prepare samples for immunoblotting, the concentrations of the fractionated samples were quantified using the Bradford protein quantification assay. RIPA buffer and 4X SDS Laemmli sample buffer (containing 2.5% β-mercaptoethanol for reducing conditions) were added to each sample to adjust the final protein concentration to 2 mg/mL. The samples were then boiled at 97°C for 5 minutes.\nMeanwhile, to obtain the insoluble fraction, the remaining pellet after supernatant removal was resuspended in RIPA buffer containing 1 M sucrose (1 mL) and DNase I (1 mg/mL). […]\n20 µg of each brain lysate sample of soluble and insoluble fractions were loaded onto a 10% SDS-PAGE gel (SDS-PAGE running buffer: 1X Tris/Glycine/SDS buffer in 3' D.W.), and electrophoresis was performed at 80 V for 30 minutes followed by 90 V for 1 hour. […] Protein bands of the membrane were detected using ChemiDoc with ECL solution, which is HRP substrate, and band intensities were quantified using ImageJ software (NIH)."}, "4R Tau^P301L-BiFC mouse [3]": {"system": "4R Tau^P301L-BiFC mouse", "test": "Open field experiment in 4R tauopathy mouse model", "assay_type": "in vivo", "settings": "GV2002 2 mg/kg subcutaneous, 3 times/week, 21 weeks; 10 minutes open field", "description": "as §1\nOpen field experiments were conducted on mice with 4R tauopathy administered GV2002 for five months, from 7.5 to 12.5 months of age, to evaluate the efficacy of GV2002 in alleviating impairment in motor ability.\nTo prevent changes in mouse behavioral responses, handling was performed for five days (days 1 to 5) prior to the experiment. Each handling session lasted two minutes. On day 6, mice were placed in a 40 cm × 40 cm enclosure and subjected to an open field experiment for 10 minutes. Prior to the experiment, mice were allowed one hour to acclimate to the testing environment. During the open field experiment, movement trajectories, distance traveled, and movement speed of the mice were recorded. The illumination level was maintained at a constant level throughout the experiment. The recorded values were analyzed using one-way ANOVA with Dunnett's multiple comparisons test."}, "4R Tau^P301L-BiFC mouse [4]": {"system": "4R Tau^P301L-BiFC mouse", "test": "Y-maze experiment in 4R tauopathy mouse model", "assay_type": "in vivo", "settings": "GV2002 2 mg/kg subcutaneous, 3 times/week, 21 weeks; 8 minutes Y-maze", "description": "as §1\nY-maze experiments were conducted on a 4R tauopathy mouse model administered GV2002 for five months, from 7.5 to 12.5 months of age, to evaluate the efficacy of GV2002 in alleviating impairment in spatial memory.\nPrior to the experiment, mice were allowed one hour to acclimate to the testing environment. The mice's behavior was recorded for 8 minutes."}, "[5]": {"settings": "soluble fraction of brain lysate"}}}
{"substance": "Ac-EARPALLTSRLRFIPK-NH2 [GV2002]", "values": [{"measurement": "time spent exploring the novel object compared to the time spent exploring the learned object", "setting": "4R Tau^P301L-BiFC mouse [1]", "result": "significant increase"}, {"measurement": "level of insoluble tau, reduced to (compared to the vehicle-administered group)", "setting": "[2]; insoluble fraction of brain lysate, total tau (Tau5)", "result": 57, "unit": "%"}, {"measurement": "phosphorylated tau pS199, reduced to (compared to the vehicle-administered group)", "setting": "[2]; [5]", "result": 66, "unit": "%"}, {"measurement": "phosphorylated tau pS396, reduced to (compared to the vehicle-administered group)", "setting": "[2]; [5]", "result": 56, "unit": "%"}, {"measurement": "movement speed in the open space compared to the vehicle-administered group", "setting": "4R Tau^P301L-BiFC mouse [3]", "result": "significantly higher"}, {"measurement": "total distance traveled in the open space compared to the vehicle-administered group", "setting": "4R Tau^P301L-BiFC mouse [3]", "result": "significantly higher"}, {"measurement": "rate of spontaneous alternation behavior compared to the vehicle-administered group", "setting": "4R Tau^P301L-BiFC mouse [4]", "result": "significant increase"}]}
